Drawing on ChEMBL document CHEMBL1131152, “In vitro and in vivo activities of oligodeoxynucleotide-based thrombin inhibitors containing neutral formacetal linkages” (J Med Chem, 1998), this text covers Relative PT for five compounds.

For the test, the target named is Prothrombin (Homo sapiens) (UniProt P00734). Nature of the test: Relative prothrombin time was determined as the activity of the test ODN (oligodeoxynucleotide) relative to that of GS-522.
With `Cc1cn([C@H]2C[C@H](OCOC[C@H]3O[C@@H](n4cnc5c(=O)nc(N)[nH]c54)C[C@@H]3OP(=O)(O)OC[C@H]3O[C@@H](n4cnc5c(=O)[nH]c(=N)[nH]c54)C[C@@H]3OP(=O)(O)OC[C@H]3O[C@@H](n4cc(C)c(=O)[nH]c4=O)C[C@@H]3OCOC[C@H]3O[C@@H](n4cnc5c(=O)[nH]c(=N)[nH]c54)C[C@@H]3OP(=O)(O)OC[C@H]3O[C@@H](n4cc(C)c(=O)[nH]c4=O)C[C@@H]3OP(=O)(O)OC[C@H]3O[C@@H](n4cnc5c(=O)nc(N)[nH]c54)C[C@@H]3OP(=O)(O)OC[C@H]3O[C@@H](n4cnc5c(=O)[nH]c(=N)[nH]c54)C[C@@H]3OP(=O)(O)OC[C@H]3O[C@@H](n4cc(C)c(=O)[nH]c4=O)C[C@@H]3OP(=O)(O)OC[C@H]3O[C@@H](n4cc(C)c(=O)[nH]c4=O)C[C@@H]3OP(=O)(O)OC[C@H]3O[C@@H](n4cnc5c(=O)[nH]c(=N)[nH]c54)C[C@@H]3OP(=O)(O)OC[C@H]3O[C@@H](n4cnc5c(=O)nc(N)[nH]c54)C[C@@H]3O)[C@@H](COP(=O)(O)O[C@H]3C[C@H](n4cc(C)c(=O)[nH]c4=O)O[C@@H]3COP(=O)(O)O[C@H]3C[C@H](n4cnc5c(=O)[nH]c(=N)[nH]c54)O[C@@H]3COP(=O)(O)O[C@H]3C[C@H](n4cnc5c(=O)[nH]c(=N)[nH]c54)O[C@@H]3COP(=O)(O)O)O2)c(=O)[nH]c1=O`, the Relative PT was found to be 0.3.
`Cc1cn([C@H]2C[C@H](OCOC[C@H]3O[C@@H](n4cnc5c(=O)nc(N)[nH]c54)C[C@@H]3OP(=O)(O)OC[C@H]3O[C@@H](n4cnc5c(=O)[nH]c(=N)[nH]c54)C[C@@H]3OP(=O)(O)OC[C@H]3O[C@@H](n4cc(C)c(=O)[nH]c4=O)C[C@@H]3OP(=O)(O)OC[C@H]3O[C@@H](n4cnc5c(=O)[nH]c(=N)[nH]c54)C[C@@H]3OP(=O)(O)OC[C@H]3O[C@@H](n4cc(C)c(=O)[nH]c4=O)C[C@@H]3OP(=O)(O)OC[C@H]3O[C@@H](n4cnc5c(=O)nc(N)[nH]c54)C[C@@H]3OP(=O)(O)OC[C@H]3O[C@@H](n4cnc5c(=O)[nH]c(=N)[nH]c54)C[C@@H]3OP(=O)(O)OC[C@H]3O[C@@H](n4cc(C)c(=O)[nH]c4=O)C[C@@H]3OP(=O)(O)OC[C@H]3O[C@@H](n4cc(C)c(=O)[nH]c4=O)C[C@@H]3OP(=O)(O)OC[C@H]3O[C@@H](n4cnc5c(=O)[nH]c(=N)[nH]c54)C[C@@H]3OP(=O)(O)OC[C@H]3O[C@@H](n4cnc5c(=O)nc(N)[nH]c54)C[C@@H]3O)[C@@H](COP(=O)(O)O[C@H]3C[C@H](n4cc(C)c(=O)[nH]c4=O)O[C@@H]3COP(=O)(O)O[C@H]3C[C@H](n4cnc5c(=O)nc(N)[nH]c54)O[C@@H]3COP(=O)(O)O[C@H]3C[C@H](n4cnc5c(=O)nc(N)[nH]c54)O[C@@H]3COP(=O)(O)O)O2)c(=O)[nH]c1=O`: the Relative PT was found to be 0.7.
Compound `Cc1cn([C@H]2C[C@H](OP(=O)(O)OC[C@H]3O[C@@H](n4cnc5c(=O)nc(N)[nH]c54)C[C@@H]3OP(=O)(O)OC[C@H]3O[C@@H](n4cnc5c(=O)[nH]c(=N)[nH]c54)C[C@@H]3OP(=O)(O)OC[C@H]3O[C@@H](n4cc(C)c(=O)[nH]c4=O)C[C@@H]3OP(=O)(O)OC[C@H]3O[C@@H](n4cnc5c(=O)nc(N)[nH]c54)C[C@@H]3OP(=O)(O)OC[C@H]3O[C@@H](n4cc(C)c(=O)[nH]c4=O)C[C@@H]3OP(=O)(O)OC[C@H]3O[C@@H](n4cnc5c(=O)nc(N)[nH]c54)C[C@@H]3OCOC[C@H]3O[C@@H](n4cnc5c(=O)[nH]c(=N)[nH]c54)C[C@@H]3OP(=O)(O)OC[C@H]3O[C@@H](n4cc(C)c(=O)[nH]c4=O)C[C@@H]3OP(=O)(O)OC[C@H]3O[C@@H](n4cc(C)c(=O)[nH]c4=O)C[C@@H]3OP(=O)(O)OC[C@H]3O[C@@H](n4cnc5c(=O)[nH]c(=N)[nH]c54)C[C@@H]3OP(=O)(O)OC[C@H]3O[C@@H](n4cnc5c(=O)nc(N)[nH]c54)C[C@@H]3O)[C@@H](COP(=O)(O)O[C@H]3C[C@H](n4cc(C)c(=O)[nH]c4=O)O[C@@H]3COP(=O)(O)O[C@H]3C[C@H](n4cnc5c(=O)nc(N)[nH]c54)O[C@@H]3COCO[C@H]3C[C@H](n4cnc5c(=O)nc(N)[nH]c54)O[C@@H]3COP(=O)(O)O)O2)c(=O)[nH]c1=O` gave a Relative PT of 0.7.
The compound `Cc1cn([C@H]2C[C@H](OCOC[C@H]3O[C@@H](n4cnc5c(=O)[nH]c(=N)[nH]c54)C[C@@H]3OP(=O)(O)OC[C@H]3O[C@@H](n4cnc5c(=O)nc(N)[nH]c54)C[C@@H]3O)[C@@H](COP(=O)(O)O[C@H]3C[C@H](n4cc(C)c(=O)[nH]c4=O)O[C@@H]3COP(=O)(O)O[C@H]3C[C@H](n4cnc5c(=O)[nH]c(=N)[nH]c54)O[C@@H]3COP(=O)(O)O[C@H]3C[C@H](n4cnc5c(=O)nc(N)[nH]c54)O[C@@H]3COP(=O)(O)O[C@H]3C[C@H](n4cc(C)c(=O)[nH]c4=O)O[C@@H]3COP(=O)(O)O[C@H]3C[C@H](n4cnc5c(=O)[nH]c(=N)[nH]c54)O[C@@H]3COP(=O)(O)O[C@H]3C[C@H](n4cc(C)c(=O)[nH]c4=O)O[C@@H]3COP(=O)(O)O[C@H]3C[C@H](n4cnc5c(=O)[nH]c(=N)[nH]c54)O[C@@H]3COP(=O)(O)O[C@H]3C[C@H](n4cnc5c(=O)nc(N)[nH]c54)O[C@@H]3COP(=O)(O)O[C@H]3C[C@H](n4cc(C)c(=O)[nH]c4=O)O[C@@H]3COP(=O)(O)O[C@H]3C[C@H](n4cc(C)c(=O)[nH]c4=O)O[C@@H]3COP(=O)(O)O[C@H]3C[C@H](n4cnc5c(=O)nc(N)[nH]c54)O[C@@H]3COP(=O)(O)O[C@H]3C[C@H](n4cnc5c(=O)nc(N)[nH]c54)O[C@@H]3COP(=O)(O)O)O2)c(=O)[nH]c1=O` showed a Relative PT of 0.6.
Compound `Cc1cn([C@H]2C[C@H](OCOC[C@H]3O[C@@H](n4cnc5c(=O)nc(N)[nH]c54)C[C@@H]3OP(=O)(O)OC[C@H]3O[C@@H](n4cnc5c(=O)[nH]c(=N)[nH]c54)C[C@@H]3OP(=O)(O)OC[C@H]3O[C@@H](n4cc(C)c(=O)[nH]c4=O)C[C@@H]3OP(=O)(O)OC[C@H]3O[C@@H](n4cnc5c(=O)[nH]c(=N)[nH]c54)C[C@@H]3OP(=O)(O)OC[C@H]3O[C@@H](n4cc(C)c(=O)[nH]c4=O)C[C@@H]3OP(=O)(O)OC[C@H]3O[C@@H](n4cnc5c(=O)nc(N)[nH]c54)C[C@@H]3OP(=O)(O)OC[C@H]3O[C@@H](n4cnc5c(=O)[nH]c(=N)[nH]c54)C[C@@H]3OP(=O)(O)OC[C@H]3O[C@@H](n4cc(C)c(=O)[nH]c4=O)C[C@@H]3OP(=O)(O)OC[C@H]3O[C@@H](n4cc(C)c(=O)[nH]c4=O)C[C@@H]3OCOC[C@H]3O[C@@H](n4cnc5c(=O)[nH]c(=N)[nH]c54)C[C@@H]3OP(=O)(O)OC[C@H]3O[C@@H](n4cnc5c(=O)nc(N)[nH]c54)C[C@@H]3O)[C@@H](COP(=O)(O)O[C@H]3C[C@H](n4cc(C)c(=O)[nH]c4=O)O[C@@H]3COP(=O)(O)O[C@H]3C[C@H](n4cnc5c(=O)nc(N)[nH]c54)O[C@@H]3COP(=O)(O)O[C@H]3C[C@H](n4cnc5c(=O)[nH]c(=N)[nH]c54)O[C@@H]3COP(=O)(O)O)O2)c(=O)[nH]c1=O` came in with a Relative PT of 0.3.
